Test results taken from patent US11427586B2, “1,2,4-oxadiazole derivatives as liver X receptor agonists” (NOVARTIS AG, priority 2019, dated 2022).
Like-named read-outs stand apart in the source and are kept apart here.

Columns and labels:
[1] = system: SCD1; assay: Measurement of SCD1 expression in SZ95-SCD1-HiBit cells (HiBiT assay); assay type: cell-based; conditions: Homo sapiens, 48 h; for EC50: SCD1 protein production, luminescence, initial dilution 1:3 in DMSO, read-out: HiBit EC50
From the text: Measurement of SCD1 Expression in SZ95-SCD1-HiBit Cells
SCD1 expression levels in SZ95 cells were quantitated using the HiBiT system (Promega) in which a small peptide sequence (SmBiT) with a larger protein (LgBiT) reconstitutes luciferase activity and can generate a luminescent signal used for quantitation. SZ95-SCD1-HiBit cells were generated by editing the SCD1 gene of SZ95 cells resulting in the addition of an 8 amino acid linker sequence (gssggssg, SEQ ID NO:1) followed by an 11-amino acid SmBiT sequence (vsgwrlfkkis, SEQ ID NO:2) at the carboxy-terminus of the SCD1 protein. The gRNA targeting sequence used was […] (SEQ ID NO: 3) and the SCD1 insertion oligonucleotide encoding the SmBiT sequence was:
SZ95-SCD1-HiBit cells were seeded in 384-well cell culture white plates at a density of 3000 cells/30 μl. Water was added to edge wells to avoid evaporation. Cells were incubated in a humidified incubator with 5% CO2 at 37° C. overnight. Tested compounds were diluted at a ratio of 1:3 in DMSO using an Agilent BRAVO Automated Liquid Handling Platform and, after further serial dilutions, added to cells at final concentrations starting from 18 μM. 2-(3-(3-((2-chloro-3-(trifluoromethyl)benzyl)(2,2-diphenylethyl)amino)propoxy)phenyl)acetic acid was used as a reference compound in each plate. Cells in the assay plate were incubated in a humidified incubator with 5% CO2 at 37° C. for 48 h.
The assay plates were removed from the incubator and allowed to equilibrate to room temperature. Nano-Glo® HiBiT Detection Reagent (Promega; a mixture of Nano-Glo HiBiT Detection Buffer, Nano-Glo HiBiT Detection Substrate, and LgBiT protein, according to the manufacturer's instructions) was added into assay plates, at a volume equal to cell culture medium in each well. Plates were placed on an orbital shaker at a speed of 300-600 rpm for 10 min at room temperature, and read on an EnVision Plate Reader using luminescence detection with a 1 second read time.
The assay measures the increase in SCD1 protein production in vitro. Amax refers to the percent EC50 of the tested compound compared to a reference compound, 2-(3-(3-((2-chloro-3-(trifluoromethyl)benzyl)(2,2-diphenylethyl)amino)propoxy)phenyl)acetic acid.

[2] = system: SZ95 sebocytes; assay: Sentinel Lipid Assay (SLA), desaturation index in SZ95 sebocytes; assay type: cell-based; conditions: Homo sapiens, 72 h; for EC50: desaturation index, lowest dose used 4.6 nM, read-out: SLA EC50
Description: Sentinel Lipid Assay (SLA)
The sentinel lipid assay was used quantify the change in the global desaturation index in SZ95 sebocytes upon administration of certain LXR agonist compounds provided herein. The assay measures a smaller subset of lipid analytes in meibum (termed “sentinel lipids”) which would model the global changes the population of both saturated and desaturated lipids in the cells. In order to define this smaller subset of lipids, a complete lipid profile was recorded on dose response curves (eight levels from 4 nM to 10 uM) of Compounds 1-72. An elastic net regression model was applied separately to both the saturated and desaturated lipids to determine the minimum combination of coefficients and analytes, which could be used to adequately model the total population of lipids. The elastic net model was able to reduce the behavior of 425 lipids to 11 lipids and the correlation between the desaturation indices observed using the complete set of lipids with from the 11 sentinel lipids was 0.96.
A medium throughput assay was created using this reduced set of sentinel lipids. A single batch is defined as triplicate examples of three unique plates (i.e., a single batch of cells is used to create nine plates for LC-MSMS analysis). Lipids were extracted from the cells using a 1:1 mixture of methylene chloride/methanol containing 10 nM of deuterated standards of triglycerides, which are used as internal standards for quantitating the lipid abundance. The lipids were separated prior to mass spectrometric analysis using a five minute HPLC gradient. The abundance of the sentinel lipids and the internal standards are measured using multiple reaction monitor mode (MRM) on a triple quadrupole mass spectrometer. The data was transformed from total ion current to nmoles/10^6 cells, which are multiplied by the coefficients from the elastic net model to determine the effective desaturated and saturated content, and therein the desaturation index of the dosed cells. In order to compare compounds from multiple batches with one another, the measure raw desaturation index was normalized by dividing it by the desaturation index of the DMSO dosed cells, and all data was assessed as the fraction by which the compound increases the desaturation index above 1.
SZ95 (immortalized human sebaceous gland cells) cells were seeded in Greiner bio-one 96-well polypropylene plates that were pre-treated with 50 μg/mL Human Plasma Fibronectin (Thermo Fisher Scientific) at a density of 10^4 cells/135 μl. Cells were incubated in a humidified incubator with 5% CO2 at 37° C. overnight. Test compounds were diluted at a ratio of 1:3 and added to cells at final concentrations starting from 10 μM. 2-(3-(3-((2-chloro-3-(trifluoromethyl)benzyl)(2,2-diphenylethyl)amino)propoxy)phenyl)acetic acid was used as a positive control reference compound in each plate. Cells in the assay plate were incubated in a humidified incubator with 5% CO2 at 37° C. for 72 h.
Culture medium was removed from the cells and cells in culture plates were washed with ice cold phosphate buffered saline three times. Plates were heat sealed and stored in a −80° C. freezer prior to Sentinel lipid assay. The Amax value refers to the percent EC50 of the tested compound compared to a reference compound, 2-(3-(3-((2-chloro-3-(trifluoromethyl)benzyl)(2,2-diphenylethyl)amino)propoxy)phenyl)acetic acid.

[3] = normalized Amax based on the reference compound Amax of 100%, read-out: HiBit Normalized Amax
[4] = SZ95-SCD1-HiBit cells, compared to reference compound, read-out: HiBit Amax
[5] = normalized Amax based on the reference compound Amax of 100%, read-out: SLA Normalized Amax
[6] = SZ95 cells, compared to reference compound, read-out: SLA Amax

| Structure (SMILES) | Emax [1, 3] | EC50 ([1]; SZ95-SCD1-HiBit cells) | Emax [1, 4] | Emax [2, 5] | EC50 ([2]; SZ95 cells) | Emax [2, 6] |
| --- | --- | --- | --- | --- | --- | --- |
| CS(=O)(=O)c1ccccc1Oc1ccc(-c2noc(CN3C(=O)N(CCC4CCOCC4)C4(CCN(C5CCC5)CC4)C3=O)n2)cc1C(F)(F)F [Compound 17, 8-cyclobutyl-3-((3-(4-(2-(methylsulfonyl)phenoxy)-3-(trifluoromethyl)phenyl)-1,2,4-oxadiazol-5-yl)methyl)-1-(2-(tetrahydro-2H-pyran-4-yl)ethyl)-1,3,8-triazaspiro[4.5]decane-2,4-dione] | 200% | 0.041 nM | 190% | 102% | ≤ 4.6 nM | 97.4% |
| O=C1N(Cc2nc(-c3ccc(Oc4ccccc4S(=O)(=O)CC4CCCO4)c(C(F)(F)F)c3)no2)C(=O)C2(CCN(C3CCC3)CC2)N1CCN1CCOCC1 (stereo not drawn) [Compound 18, 8-cyclobutyl-1-(2-morpholinoethyl)-3-((3-(4-(2-(((tetrahydrofuran-2-yl)methyl)sulfonyl)phenoxy)-3-(trifluoromethyl)phenyl)-1,2,4-oxadiazol-5-yl)methyl)-1,3,8-triazaspiro[4.5]decane-2,4-dione] | 139% | 0.133 nM | 132% | 141% | ≤ 4.6 nM | 135% |
| O=C1N(Cc2nc(-c3ccc(Oc4ccccc4S(=O)(=O)CC4CCCO4)c(C(F)(F)F)c3)no2)C(=O)C2(CCN(C3CCC3)CC2)N1CCC1CCOCC1 (stereo not drawn) [Compound 19, 8-cyclobutyl-1-(2-(tetrahydro-2H-pyran-4-yl)ethyl)-3-((3-(4-(2-(((tetrahydrofuran-2-yl)methyl)sulfonyl)phenoxy)-3-(trifluoromethyl)phenyl)-1,2,4-oxadiazol-5-yl)methyl)-1,3,8-triazaspiro[4.5]decane-2,4-dione] | 194% | 0.042 nM | 184% | 146% | ≤ 4.6 nM | 140% |
| CC(C)CS(=O)(=O)c1ccccc1Oc1ccc(-c2noc(CN3C(=O)N(CCN4CCOCC4)C4(CCN(Cc5ccc(O)cc5)CC4)C3=O)n2)cc1C(F)(F)F [Compound 20, 8-(4-hydroxybenzyl)-3-((3-(4-(2-(isobutylsulfonyl)phenoxy)-3-(trifluoromethyl)phenyl)-1,2,4-oxadiazol-5-yl)methyl)-1-(2-morpholinoethyl)-1,3,8-triazaspiro[4.5]decane-2,4-dione] | 93.7% | 0.078 nM | 89.1% | 155% | ≤ 4.6 nM | 149% |
| CC(C)CS(=O)(=O)c1ccccc1Oc1ccc(-c2noc(CN3C(=O)N(CCN4CCOCC4)C4(CCN(Cc5cc(O)cc(O)c5)CC4)C3=O)n2)cc1C(F)(F)F [Compound 21, 8-(3,5-dihydroxybenzyl)-3-((3-(4-(2-(isobutylsulfonyl)phenoxy)-3-(trifluoromethyl)phenyl)-1,2,4-oxadiazol-5-yl)methyl)-1-(2-morpholinoethyl)-1,3,8-triazaspiro[4.5]decane-2,4-dione] | 83.7% | 0.241 nM | 79.6% | 102% | ≤ 4.6 nM | 97.5% |
| CC(C)CS(=O)(=O)c1ccccc1Oc1ccc(-c2noc(CN3C(=O)N(CCN4CCOCC4)C4(CCN(C5CCN(C)CC5)CC4)C3=O)n2)cc1C(F)(F)F [Compound 22, 3-((3-(4-(2-(isobutylsulfonyl)phenoxy)-3-(trifluoromethyl)phenyl)-1,2,4-oxadiazol-5-yl)methyl)-8-(1-methylpiperidin-4-yl)-1-(2-morpholinoethyl)-1,3,8-triazaspiro[4.5]decane-2,4-dione] | 135% | 1.83 nM | 129% | 160% | ≤ 4.6 nM | 154% |
| CC(C)CS(=O)(=O)c1ccccc1Oc1ccc(-c2noc(CN3C(=O)N(CCN4CCOCC4)C4(CCN(C5CCN(C)C5)CC4)C3=O)n2)cc1C(F)(F)F (stereo not drawn) [Compound 23, 3-((3-(4-(2-(isobutylsulfonyl)phenoxy)-3-(trifluoromethyl)phenyl)-1,2,4-oxadiazol-5-yl)methyl)-8-(1-methylpyrrolidin-3-yl)-1-(2-morpholinoethyl)-1,3,8-triazaspiro[4.5]decane-2,4-dione] | 85.1% | 3.48 nM | 80.9% | 176% | ≤ 4.6 nM | 169% |
| CCN1CCC2(CC1)C(=O)N(Cc1nc(-c3ccc(Oc4ccccc4S(=O)(=O)CC(C)C)c(C(F)(F)F)c3)no1)C(=O)N2CCN1CCOCC1 [Compound 24, 8-ethyl-3-((3-(4-(2-(isobutylsulfonyl)phenoxy)-3-(trifluoromethyl)phenyl)-1,2,4-oxadiazol-5-yl)methyl)-1-(2-morpholinoethyl)-1,3,8-triazaspiro[4.5]decane-2,4-dione] | 117% | 0.05 nM | 111% | 164% | ≤ 4.6 nM | 158% |
| CC(C)CS(=O)(=O)c1ccccc1Oc1ccc(-c2noc(CN3C(=O)N(CCN4CCOCC4)C4(CCN(Cc5cccnn5)CC4)C3=O)n2)cc1C(F)(F)F [Compound 25, 3-((3-(4-(2-(isobutylsulfonyl)phenoxy)-3-(trifluoromethyl)phenyl)-1,2,4-oxadiazol-5-yl)methyl)-1-(2-morpholinoethyl)-8-(pyridazin-3-ylmethyl)-1,3,8-triazaspiro[4.5]decane-2,4-dione] | 98.2% | 1.62 nM | 93.4% | 190% | ≤ 4.6 nM | 182% |
| CC(C)CS(=O)(=O)c1ccccc1Oc1ccc(-c2noc(CN3C(=O)N(CCN4CCOCC4)C4(CCN(CC5CCOCC5)CC4)C3=O)n2)cc1C(F)(F)F [Compound 26, 3-((3-(4-(2-(isobutylsulfonyl)phenoxy)-3-(trifluoromethyl)phenyl)-1,2,4-oxadiazol-5-yl)methyl)-1-(2-morpholinoethyl)-8-((tetrahydro-2H-pyran-4-yl)methyl)-1,3,8-triazaspiro[4.5]decane-2,4-dione] | 96.3% | 0.796 nM | 91.6% | 113% | ≤ 4.6 nM | 108% |
